# Laboratory results from patent publication US20130225830A1, “POLYMORPHS OF FEBUXOSTAT” (MAPI PHARMA LIMITED, priority 2010, published 2013).
# “And” between values parts separate entries of the source, which are not always exact repeats. Equal values may be shown once.
# Columns and labels:
# Assay type in all cases: physicochemical
# [1] = Physical stability measurements (XRPD, DSC, TGA)
# Procedure: Testing conditions: 40° C., 60° C., 40° C./RH 75%, 60° C./RH 75%, light
# Testing procedure: About 50 mg of a febuxostat form were weighed in glass vial for testing the physical stability and were stored under different conditions for 1 week and 2 weeks, separately. The same febuxostat form was stored at −20° C. as control. XRPD, DSC and TGA of each of the febuxostat forms were measured at the end of the first and second weeks.
# [2] = Aqueous solubility measurements; conditions: for pH: final pH of saturated solution
# Procedure: Testing media: water, pH 1.2, 4.5, 6.8, 7.4 USP buffers, 0.01 N HCl, 0.1 N HCl, SGF, FaSSIF, FeSSIF.
# The various testing media were prepared as follows:
# pH 1.2 (USP): 50 mL of 0.2 M potassium chloride solution were placed in a 200 mL volumetric flask to which 85.0 mL of 0.2M hydrochloric acid solution were added followed by the addition of water to obtain the required volume.
# pH 4.5 (USP): 50 mL of 0.2 M potassium biphthalate solution were placed in a 200 mL volumetric flask to which 8.8 mL of 0.2 M sodium hydroxide solution were added followed by the addition of water to obtain the required volume.
# pH 6.8 (USP): 50 mL of 0.2 M monobasic potassium phosphate solution were placed in a 200 mL volumetric flask to which 22.4 mL of 0.2 M sodium hydroxide solution were added followed by the addition of water to obtain the required volume.
# pH 7.4 (USP): 50 mL of 0.2 M monobasic potassium phosphate solution were placed in a 200 mL volumetric flask to which 39.1 mL of 0.2 M sodium hydroxide solution were added followed by the addition of water to obtain the required volume.
# Simulated gastric fluid (SGF): 0.01 N HCl, 0.05% sodium lauryl sulfate, and 0.2% NaCl.
# Fasted state simulated intestinal fluid (FaSSIF): 29 mM NaH2PO4, 3 mM Na taurocholate, 0.75 mM lecithin, 103 mM NaCl, and NaOH to obtain pH 6.5.
# Fed state simulated intestinal fluid (FeSSIF): 144 mM acetic acid, 15 mM Na taurocholate, 3.75 mM lecithin, 204 mM NaCl, and NaOH to obtain pH 5.0.
# Testing procedure: The tested febuxostat form was placed in each of the different media and was kept shaken for 24 hours at 25° C. Then, the saturated solution was filtered. The concentration of the febuxostat form in filtrate was determined by HPLC. The final pH was then tested. The test was conducted in duplication.
# [3] = Bulk and tapped density measurements
# Procedure: Bulk density testing: A febuxostat form in an amount which is sufficient to complete the test was passed through a 1.0 mm (No. 18) screen to break up agglomerates that may have formed during storage. The febuxostat form was then weighed (M) and the powder was added into a 10 mL graduated cylinder. The powder was carefully leveled without compacting, and the unsettled apparent volume, Vo, was read. The bulk density, in g per mL, was calculated by the formula: Bulk Density=M/Vo Tapped density testing: A febuxostat form in an amount which is sufficient to complete the test was passed through a 1.0 mm (No. 18) screen to break up agglomerates that may have formed during storage. The febuxostat form was then weighed and the powder was added into a 10 mL graduated cylinder. The powder was carefully leveled without compacting. The cylinder was tapped 500 times initially and the tapped volume, Va, was measured to the nearest graduated unit. The tapping was then repeated for additional 750 times and the tapped volume, Vb, was measured to the nearest graduated unit. If the difference between the two volumes was less than 2%, Vb was taken as the final tapped volume, Vf. The tapped density, in g per mL, was calculated by the formula: Tapped Density=M/Vf
# [4] = Solid stability measurements (appearance, assay and total related substances by HPLC); conditions: for Remaining (%): one value for both samples, vs −20° C. control; for Appearance / TRS (%): samples 1 and 2
# Procedure: The detailed chromatographic conditions are listed hereinbelow. The typical retention time of febuxostat main peak is 8.2 min. [table] Testing conditions: 40° C., 60° C., 40° C./RH 75%, 60° C./RH 75%, light Testing procedure: About 3 mg of a febuxostat form were weighed in a glass vial and stored under the different conditions for 1 week and 2 weeks, separately. The same febuxostat form was stored at −20° C. as control. The test was conducted in duplication. The physical appearance, assay and total related substances of each of the febuxostat forms were measured by HPLC at the end of the first and second weeks.
# [5] = media 0.01N HCl, 24 hours at 25° C.
# [6] = media 0.1N HCl, 24 hours at 25° C.
# [7] = media FaSSIF, 24 hours at 25° C.
# [8] = media FeSSIF, 24 hours at 25° C.
# [9] = media pH 1.2 (USP), 24 hours at 25° C.
# [10] = media pH 4.5 (USP), 24 hours at 25° C.
# [11] = media pH 6.8 (USP), 24 hours at 25° C.
# [12] = media pH 7.4 (USP), 24 hours at 25° C.
# [13] = media water, 24 hours at 25° C.
smiles,measurement,setting,value
"Cc1nc(-c2ccc(OCC(C)C)c(C#N)c2)sc1C(=O)O [Form IX, 2-(3-cyano-4-isobutoxyphenyl)-4-methyl-5-thiazolecarboxylic acid]","physical stability (XRPD, DSC, TGA)","[1]; 40° C., 60° C. and light at the end of the first and second week",stable
same,"physical stability (XRPD, DSC, TGA), form conversion",[1]; 40° C./75% RH at the end of the second week,partially converted to form G
same,"physical stability (XRPD, DSC, TGA), form conversion",[1]; 60° C./75% RH at the end of the first and second weeks,completely converted to form G
same,solubility at colon-simulated media and intestinal fluids (in words),[2]; colon-simulated media (pHs=6.8-7.4) and intestinal fluids,improved solubility
same,pH,[2]; [5],2.078
same,pH,[2]; [6],1.060
same,pH,[2]; [7],6.246
same,pH,[2]; [8],4.983
same,pH,"[2]; media SGF, 24 hours at 25° C.",2.097
same,pH,[2]; [9],1.242
same,pH,[2]; [10],4.524
same,pH,[2]; [11],6.477
same,pH,[2]; [12],6.690
same,pH,"[2]; media water, shaken 24 hours at 25° C.",5.403
same,Visual solubility,[2]; [5],Turbid + few particles
same,Visual solubility,[2]; [6],Turbid + few particles
same,HPLC solubility,[2]; [7],606.65 µg/mL
same,Visual solubility,[2]; [7],Turbid
same,HPLC solubility,[2]; [8],192.53 µg/mL
same,Visual solubility,[2]; [8],Turbid
same,Visual solubility,"[2]; media SGF, 24 hours at 25° C.",Turbid
same,Visual solubility,[2]; [9],Turbid + few particles
same,HPLC solubility,[2]; [10],0.78 µg/mL
same,Visual solubility,[2]; [10],Turbid + few particles
same,HPLC solubility,[2]; [11],1409.99 µg/mL
same,Visual solubility,[2]; [11],Turbid + few particles
same,HPLC solubility,[2]; [12],4836.10 µg/mL
same,Visual solubility,[2]; [12],Slightly turbid
same,HPLC solubility,[2]; [13],32.99 µg/mL
same,Visual solubility,[2]; [13],Turbid + few particles
same,aqueous solubility (in words),"[2]; pH1.2 USP buffer, 0.01N HCl, 0.1N HCl and SGF",poor solubility
same,aqueous solubility (in words),"[2]; pH6.8 USP buffer, pH7.4 USP buffer, FaSSIF, FeSSIF",good solubility
same,Bulk Density,[3],0.177 g/mL
same,Tapped Density,[3],0.282 g/mL
same,bulk and tapped densities (in words),"[3]; compared among forms V, IX, XI and form G",lowest bulk and tapped densities
same,change of assay and TRS (in words),"[4]; 40° C., 60° C., 40° C./75% RH, 60° C./75% RH at end of the first and second weeks",no significant change
same,Remaining (%),"[4]; 40° C., 7 d",99.70%
same,Appearance,"[4]; 40° C., 7 d",No change
same,TRS (%),"[4]; 40° C., 7 d",1.28% and 1.30%
same,Remaining (%),"[4]; 40° C., 14 d",100.02%
same,Appearance,"[4]; 40° C., 14 d",No change
same,TRS (%),"[4]; 40° C., 14 d",1.29% and 1.32%
same,Remaining (%),"[4]; 40° C./75% RH, 7 d",100.47%
same,Appearance,"[4]; 40° C./75% RH, 7 d",No change
same,TRS (%),"[4]; 40° C./75% RH, 7 d",1.34% and 1.31%
same,Remaining (%),"[4]; 40° C./75% RH, 14 d",99.47%
same,Appearance,"[4]; 40° C./75% RH, 14 d",No change
same,TRS (%),"[4]; 40° C./75% RH, 14 d",1.35% and 1.33%
same,Remaining (%),"[4]; 60° C., 7 d",100.80%
same,Appearance,"[4]; 60° C., 7 d",No change
same,TRS (%),"[4]; 60° C., 7 d",1.37% and 1.35%
same,Remaining (%),"[4]; 60° C., 14 d",100.41%
same,Appearance,"[4]; 60° C., 14 d",No change
same,TRS (%),"[4]; 60° C., 14 d",1.38% and 1.35%
same,Remaining (%),"[4]; 60° C./75% RH, 7 d",100.89%
same,Appearance,"[4]; 60° C./75% RH, 7 d",No change
same,TRS (%),"[4]; 60° C./75% RH, 7 d",1.33%
same,Remaining (%),"[4]; 60° C./75% RH, 14 d",100.07%
same,Appearance,"[4]; 60° C./75% RH, 14 d",No change
same,TRS (%),"[4]; 60° C./75% RH, 14 d",1.35% and 1.33%
same,Remaining (%),"[4]; Light, 7 d",97.50%
same,Appearance,"[4]; Light, 7 d",Light yellow
same,TRS (%),"[4]; Light, 7 d",3.07% and 3.05%
same,Remaining (%),"[4]; Light, 14 d",92.81%
same,Appearance,"[4]; Light, 14 d",Light yellow
same,TRS (%),"[4]; Light, 14 d",6.30% and 6.54%
same,Appearance,"[4]; −20° C. (control), 7 d",No change
same,TRS (%),"[4]; −20° C. (control), 7 d",1.23% and 1.22%
same,Appearance,"[4]; −20° C. (control), 14 d",No change
same,TRS (%),"[4]; −20° C. (control), 14 d",1.24% and 1.23%
